Source: patent US20260102503A1, “NANOCOMPOSITES FOR ENHANCED CELLULAR PAYLOAD DELIVERY” (priority 2022, published 2026)
Values after ≈ are worked out from the molar mass of the structure shown.

What was measured:
Type in all cases: cell-based
AT1 cells = assay: Nanocomposite cellular uptake mechanism study (endocytosis inhibitors, temperature block); conditions: 5 μM, 2 hours pretreatment, vs untreated cells
Experimental: To determine the NC/NP uptake mechanism used by cells, an endocytosis-inhibition examination was performed. Alveolar Type 1 cells were seeded at confluency in 48-well plates and attached overnight at 37° C. in an incubator with 5% CO2. Rhodamine B-loaded nanocomposites were prepared using a similar procedure done for other studies. After 24 hours of seeding, the AT1 cell culture medium was replaced by fresh 1% serum media containing 5 μM of Amiloride, 5 μM of methyl-β-cyclodextran, 5 μg/mL of Filipin III, 5 μM of Cytochalasin-D, 5 μM of Imipramine, 80 μM Dynasore, or 5 mM of Deoxy-glucose (Sigma Aldrich & Cayman Chemical). After 2 hours, fresh complete media with Rho B-labeled nanocomposites at a concentration of 0.5 mg/mL was added. […] Images were acquired using a fluorescent microscope and processed for NP uptake in random areas using 10 images from each inhibitor group with the ImageJ software.
In a similar fashion, to check if the nanocomposites undergo an energy-dependent uptake, temperature block was studied in AT1 cells by preincubating cells at 4° C. for 30 minutes, followed by treatment with fluorescent nanocomposites for 90 minutes at 4° C. Later, fluorescent images were acquired, and the cell lysates were analyzed for quantitative nanocomposite uptake.

[1] = tested on: primary alveolar type I epithelial cells (AT1); assay: Cytocompatibility (MTS) in AT1 cells; conditions: 72 hours, 0.0625-1 mg/mL, vs untreated control
Experimental: Primary lung epithelial cells, RAW macrophages, and HUVECs were used to assess toxicity of the nanocomposites. Nanocomposites were prepared as described in for AT1 cells, in which 20,000 cells/well of primary alveolar type I epithelial cells (AT1) were seeded in 48-well plates. After the overnight culture, various groups of particles including blank PLGA NPs, nanofibers only, and nanocomposites (nanofiber coated-PLGA nanoparticles) were given to the cells in triplicate at various concentrations ranging from 0.0625-1 mg/mL. The nanofiber concentration chosen was equivalent to the peptide amount conjugated onto the nanoparticles. After 72 hours, the cells were washed 3 times with PBS, and MTS reagent was applied to the cells to assess the cell viability following the company's instructions.
In this study, primary lung epithelial cells and kidney epithelial cells (Vero E6) were used to assess toxicity from NPs. NF-coated NPs were prepared as described above, in which 4000 cells/well of primary alveolar type I epithelial cells (AT1 cells) and Vero E6 cells were seeded in 96-well plates. After overnight culturing, RDV NCs were added to the cells in triplicate at various concentrations ranging from 0 to 1 mg/mL. An NF to NP ratio of 0.25 was used for the study. […]

MRSA = assay: microbe, parasite or virus in culture; conditions: Staphylococcus aureus, 24 h

In the case of `C=C1[C@@H](C)[C@H]2[C@H](Cc3ccccc3)NC(=O)[C@]23[C@H](OC(C)=O)/C=C/[C@@](C)(O)C(=O)[C@@H](C)C/C=C/[C@H]3[C@@H]1O` [cytochalasin-D], the “effect of endocytosis inhibitor on cellular uptake of NCs” value (AT1 cells) is reported as “significant reduction in cellular uptake”.

In the case of “Ac-KKKKKKKKKKQWQWQWQWQWQWEEE-NH2 [NFs, K10(QW)6E3]”, the “cytocompatibility (cell viability, MTS)” value [1] is reported as “significant toxicity with concentrations ranging from 0.25-1 mg/mL”.

Molecule `CN[C@H](CC(C)C)C(=O)N[C@H]1C(=O)N[C@@H](CC(N)=O)C(=O)N[C@H]2C(=O)N[C@H]3C(=O)N[C@H](C(=O)N[C@H](C(=O)O)c4cc(O)cc(O)c4-c4cc3ccc4O)[C@H](O)c3ccc(c(Cl)c3)Oc3cc2cc(c3O[C@@H]2O[C@H](CO)[C@@H](O)[C@H](O)[C@H]2O[C@H]2C[C@](C)(N)[C@H](O)[C@H](C)O2)Oc2ccc(cc2Cl)[C@H]1O` [free vancomycin, vancomycin] has an MIC (MRSA) of 2 µg/mL (≈ 1.38 µM).
